From publication PMC3749181, “Rapid Identification of Antifungal Compounds against Exserohilum rostratum Using High Throughput Drug Repurposing Screens” (PLoS ONE, 2013)
“And” between values parts separate entries of the source, which are not always exact repeats. Identical values can stand only once. Like-named read-outs stand apart in the source and are kept apart here.

Legend:
[1] = system: E. rostratum hyphal fragments; test: colony formation assay of hyphal fragments; assay type: cell-based, Exserohilum rostratum; conditions: 2 times respective IC50, 37°C, 24 h; p<0.01
Experimental: 10 µl of hyphal suspension (processed as described above) was transferred to 1.7 mL microfuge tubes, each containing 28 nM amphotericin B, 242 nM posaconazole, or 10% DMSO in 1 ml PBS. Tubes containing hyphae and drug were incubated at 37°C in a shaking incubator for 24 h, then 200 µl of the hyphae drug suspension was spread on Yeast Extract Peptone Dextrose (YPD) plates for 24 h at 30°C and the number of colony forming units were scored. The experiments were performed in triplicate.
Mixtures were cultured at 37°C in a shaking incubator for 24 h, then the hyphal suspensions were inoculated on Yeast Extract Peptone Dextrose (YPD) plates that were incubated for 1 day. The number of colonies on each YPD plate was counted.

[2] = system: E. rostratum; set-up: method as in earlier work; conditions: filamentous fungi M38-A2, this isolate; cited from earlier work
[3] = system: E. rostratum hyphal fragments; test: hyphal fragment fungicidal ATP content assay (PBS, 1536-well); assay type: cell-based, Exserohilum rostratum; conditions: Exserohilum rostratum; for Emax: 46 µM Amphotericin B = 100%
Summary of the method: (§1)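 Fungicidal screen: OD-normalised hyphal fragments (15,000/well) in PBS, or conidia (250/well) in RPMI, exposed 24 h at 30°C to compound at 46 µM. Viability read as ATP luminescence (ATPLite), normalised to DMSO (100%) and 46 µM amphotericin B (0%).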

[4] = system: SH-SY5Y cells; test: SH-SY5Y cytotoxicity counter-screen (ATP content assay); assay type: cell-based, Human; conditions: for SH-SY5Y % Max. Resp.: Table 2, SH-SY5Y, inact. = no significant activity at 46 µM
Summary of the method: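 SH-SY5Y human neuroblastoma cells grown in DMEM/F-12 with 10% FBS at 37 °C, 5% CO2. Viability counter-screen measured cellular ATP by luciferase luminescence (ATPLite) in 1536-well format.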

[5] = system: E. rostratum conidia; test: conidia growth inhibition ATP content assay (RPMI, 1536-well); assay type: cell-based, Exserohilum rostratum; conditions: for Emax: 46 µM Amphotericin B = 100%
Summary of the method: as §1

[6] = set-up: method as in PMID 12445558; conditions: 8 hours after intravenous (iv) administration of 20 mg/kg; cited from earlier work
[7] = system: E. rostratum; test: drug repurposing screen against E. rostratum; assay type: cell-based, Exserohilum rostratum; conditions: in our experiments
Source text: The library of pharmacologically active compounds (LOPAC) consists of 1280 small molecules with characterized biological activities. The LOPAC library (Sigma-Aldrich) has been extensively used for HTS assay validations, [18]. The NIH Chemical Genomics Center Pharmaceutical (NPC) collection was constructed in-house through a combined effort of compound purchasing and custom synthesis and recently expanded to 4096 compounds. In this drug libarary, 52% of which are drugs approved for human or animal use by the United States Food and Drug Administration (FDA), 22% are drugs approved in Europe, Canada, or Japan, and the remaining 25% are compounds that have entered clinical trials or are research compounds commonly used in biomedical research. […] 2.5 µl/well PBS was dispensed into 1536-well plates using a Multidrop-Combi dispenser. Compound in DMSO solution was transferred in a volume of 23 nl/well using a NX-TR pintool station (WAKO Scientific Solutions, San Diego, CA). This additional PBS step for compound addition was designed to prevent the potential fungal contamination of compound libraries. The hyphal fragments in PBS were then added at 2.5 µl/well for a final seeding density of 15,000 hyphal fragments/well using the Multidrop-Combi dispenser. The final compound concentration was 46 µM in the primary screen. […]

[8] = Table 2, inact. = no significant activity in the primary screen, read-out: Hyphae % Max. Resp.
[9] = Table 2, 24 h, inact. = no significant activity in the primary screen, read-out: Hyphae IC50
[10] = Exserohilum rostratum, 24 h, Table 2, 24 h, inact. = no significant activity at the highest compound concentration (46 µM), read-out: Conidia IC50
[11] = Exserohilum rostratum, Table 2, inact. = no significant activity at 46 µM, read-out: Conidia % Max. Resp.

| SMILES | hyphae-derived colony forming units (CFU) compared to DMSO control [1] | value determined from the microdilution method [2] | Emax [3, 8] [%] | IC50 [3, 9] [nM] | SH-SY5Y % Max. Resp. ([4]; 46 µM Amphotericin B = 100%) | SH-SY5Y % Max. Resp. [4] | IC50 [5, 10] [nM] | Emax [5, 11] [%] | further results |
| --- | --- | --- | --- | --- | --- | --- | --- | --- | --- |
| C[C@@H]1[C@H](O)[C@@H](C)/C=C/C=C/C=C/C=C/C=C/C=C/C=C/[C@H](O[C@@H]2O[C@H](C)[C@@H](O)[C@H](N)[C@@H]2O)C[C@@H]2O[C@](O)(C[C@@H](O)C[C@@H](O)[C@H](O)CC[C@@H](O)C[C@@H](O)CC(=O)O[C@H]1C)C[C@H](O)[C@H]2C(=O)O [Amphotericin B] | significantly reduced | 60 nM | 84 | 14 | inact. | inact. | 12 | 104 | IC50 ([3]; 15000 fragments/well, read-out: hyphae IC50): 12.4 nM; Emax ([3]; Table S1, Inact. = no significant activity in the primary screen, read-out: Hyphae % M. Res.): 84%; SH-SY5Y % M. Res. ([4]; Table S1, 46 µM Amphotericin B = 100%, Inact. = no significant activity at 46 µM): Inact.; SH-SY5Y IC50 ([4]; Table S1, Inact. = no significant activity at the highest compound concentration (46 µM)): Inact.; IC50 ([5]; 250 conidia/well, read-out: conidia IC50): 9.71 nM; IC50 ([5]; Exserohilum rostratum, Table S1, Inact. = no significant activity at the highest compound concentration (46 µM), read-out: Conidia IC50): 806 nM; IC50 ([5]; Exserohilum rostratum, 250 conidia/well, read-out: conidia IC50): 9.41 nM; Emax ([5]; Exserohilum rostratum, Table S1, Inact. = no significant activity at 46 µM, read-out: Conidia % M. Res.): 104% |
| CC[C@@H]([C@H](C)O)n1ncn(-c2ccc(N3CCN(c4ccc(OC[C@@H]5CO[C@@](Cn6cncn6)(c6ccc(F)cc6F)C5)cc4)CC3)cc2)c1=O [Posaconazole] | significantly reduced | 0.25 µg/ml and 360 nM | 78 | 121 | inact. | inact. | 97 | 106 | IC50 ([3]; Figure 5, read-out: IC50 Hyphae): 164 nM; cytotoxicity in SH-SY5Y mammalian cells ([4]; concentration up to 46 µM): no significant cytotoxicity; IC50 ([5]; Exserohilum rostratum, Figure 5, read-out: IC50 Conidia): 79 nM |
| O=c1[nH]c(=O)n([C@H]2C[C@H](O)[C@@H](CO)O2)cc1F [Floxuridine] | significantly reduced |  | 77 | 846 | inact. | inact. | 288 | 29 | brain concentrations [6]: above 600 nM |
| CCCSc1ccc2nc(NC(=O)OC)[nH]c2c1 [albendazole] |  |  |  |  |  |  |  |  | activity against E. rostratum [7]: not active |
